Measurements reported in DBAASP.
In brackets after ≈: the same amount, converted by molar mass. Blank lines part the entries; values can stand above or below the molecule they belong to.

What was measured:
Assay in all cases: ≥ marks a high value that may be exact or a test limit, other limits are often not marked, values filed in µg/mL are converted to µM
[1] = tested on: Enterococcus faecium
[2] = tested on: Escherichia coli ATCC 25922
[3] = tested on: Acinetobacter baumannii
[4] = tested on: Klebsiella pneumoniae
[5] = tested on: Staphylococcus aureus ATCC 43300
[6] = tested on: Streptococcus pneumoniae
[7] = tested on: Pseudomonas aeruginosa
[8] = tested on: Listeria innocua
[9] = tested on: Micrococcus luteus A270
[10] = tested on: Escherichia coli
[11] = tested on: Pseudomonas aeruginosa H1001
[12] = tested on: Escherichia coli DH5alpha
[13] = tested on: Staphylococcus xylosus
[14] = tested on: Staphylococcus aureus NCTC 8325
[15] = tested on: Candida albicans ATCC 90028
[16] = tested on: Candida albicans ATCC 10231
[17] = tested on: Escherichia coli D31
[18] = tested on: Staphylococcus aureus ATCC 25923
[19] = tested on: Pseudomonas aeruginosa PAO1
[20] = tested on: Bacillus subtilis ATCC 6633
[21] = tested on: Streptococcus mutans ATCC 25175
[22] = tested on: Staphylococcus aureus MR
[23] = tested on: Pseudomonas aeruginosa ATCC 15442
[24] = tested on: Staphylococcus aureus
[25] = tested on: Micrococcus luteus ATCC 9341
[26] = tested on: Salmonella typhimurium
[27] = tested on: Candida albicans

MIC [1]: 3.3 µM (≈ 7.48 µg/mL) | MIC [2]: 1.3 µM (≈ 2.95 µg/mL) | MIC [3]: 10.7 µM (≈ 24.3 µg/mL) | MIC [4]: 8 µM (≈ 18.1 µg/mL) | MIC [5]: 1.5 µM (≈ 3.4 µg/mL) | MIC [6]: 4 µM (≈ 9.07 µg/mL) | MIC [7]: 4 µM (≈ 9.07 µg/mL)
Compound: CC[C@H](C)[C@H](NC(=O)[C@H](Cc1cnc[nH]1)NC(=O)CNC(=O)CN)C(=O)N[C@@H](CCCN=C(N)N)C(=O)N[C@@H](CCCN=C(N)N)C(=O)N[C@H](C(=O)N[C@H](C(=O)N[C@@H](CCCN=C(N)N)C(=O)N[C@@H](CCCCN)C(=O)N[C@H](C(=O)N[C@H](C(=O)N[C@@H](Cc1cnc[nH]1)C(=O)N[C@H](C(=O)N[C@H](C(=O)N[C@@H](CCCCN)C(=O)N[C@@H](CCCCN)C(=O)NCC(=O)NCC(=O)N[C@@H](CS)C(N)=O)[C@@H](C)CC)[C@@H](C)CC)[C@@H](C)CC)[C@@H](C)CC)[C@@H](C)CC)[C@@H](C)CC [GGHIRRIIRKIIHIIKKGGC]

MIC [8]: 6 µM (≈ 7.59 µg/mL) | MIC [9]: 6 µM (≈ 7.59 µg/mL) | MIC [10]: 12 µM (≈ 15.2 µg/mL)
Compound: CC(C)[C@H](NC(=O)[C@@H]1CCCN1C(=O)[C@@H](NC(=O)[C@H](Cc1ccccc1)NC(=O)[C@H](CCC(=O)O)NC(=O)[C@H](CCCCN)NC(=O)CNC(=O)[C@H](Cc1ccccc1)NC(=O)[C@H](CC(N)=O)NC(=O)[C@H](CCCN=C(N)N)NC(=O)[C@H](C)N)[C@@H](C)O)C(=O)O [ARNFGKEFTPV]

MIC [11]: 0.123 µM (≈ 0.3 µg/mL)
Compound: CC[C@H](C)[C@H](NC(=O)[C@H](CCCN=C(N)N)NC(=O)[C@H](CCCN=C(N)N)NC(=O)[C@@H]1CCCN1C(=O)[C@@H]1CCCN1C(=O)[C@H](CCCN=C(N)N)NC(=O)[C@@H]1CCCN1C(=O)[C@H](CCCN=C(N)N)NC(=O)[C@@H]1CCCN1C(=O)[C@H](CC(C)C)NC(=O)[C@H](Cc1ccc(O)cc1)NC(=O)[C@@H]1CCCN1C(=O)[C@@H]1CCCN1C(=O)[C@H](CCCCN)NC(=O)[C@H](CC(=O)O)NC(=O)[C@@H](N)C(C)C)C(=O)N[C@@H](Cc1ccc(O)cc1)C(=O)N[C@@H](CC(N)=O)C(=O)N[C@@H](Cc1cnc[nH]1)C(=O)NCC(=O)O [VDKPPYLPRPRPPRRIYNHG]

MIC [12]: 8 µM (≈ 13.5 µg/mL) | MIC [13]: 0.5 µM (≈ 0.847 µg/mL)
Compound: CC[C@H](C)[C@H](NC(=O)[C@H](CC(C)C)NC(=O)[C@@H](NC(=O)[C@H](CC(C)C)NC(=O)[C@@H](NC(=O)[C@H](CCCCN)NC(=O)[C@H](CCCN=C(N)N)NC(=O)[C@H](CCCCN)NC(=O)[C@H](CCCN=C(N)N)NC(=O)[C@@H](N)CCCCN)[C@@H](C)CC)[C@@H](C)CC)C(=O)N[C@@H](CCCCN)C(=O)N[C@@H](CCCN=C(N)N)C(=O)N[C@@H](CCCCN)C(=O)O [KRKRKILILIKRK]

MIC [14]: ≥ 80 µM
Compound: CC(C)C[C@H](NC(=O)[C@@H](NC(=O)[C@H](CCCCN)NC(=O)[C@H](CO)NC(=O)[C@H](CC(C)C)NC(=O)[C@H](CC(C)C)NC(=O)[C@H](CO)NC(=O)[C@H](C)NC(=O)[C@H](CC(C)C)NC(=O)[C@H](Cc1ccccc1)NC(=O)[C@@H]1CCCN1C(=O)[C@H](CC(C)C)NC(=O)[C@@H](N)Cc1ccccc1)C(C)C)C(N)=O [FLPFLASLLSKVL]

MIC [12]: ≥ 64 µM | MIC [13]: ≥ 64 µM
Compound: CC[C@H](C)[C@H](NC(=O)[C@H](CC(C)C)NC(=O)[C@H](CCCCN)NC(=O)[C@H](CCCN=C(N)N)NC(=O)[C@@H](N)CCCCN)C(=O)N[C@@H](CCCCN)C(=O)N[C@@H](CCCN=C(N)N)C(=O)N[C@@H](CCCCN)C(=O)O [KRKLIKRK]

MIC [14]: 6 µM (≈ 12.5 µg/mL) | MIC [2]: 50 µM (≈ 104 µg/mL) | MIC [15]: 13 µM (≈ 27.2 µg/mL)
Compound: CC[C@H](C)[C@@H]1NC(=O)[C@H](C)NC(=O)[C@@H](NC(=O)[C@@H](NC(=O)[C@@H](NC(=O)[C@H](CCCCN)NC(=O)[C@H](C)NC(=O)[C@H](C)NC(=O)[C@H](CCSC)NC(=O)CNC(=O)[C@H](C)NC(=O)[C@@H](NC(=O)[C@@H](NC(=O)[C@@H]2CCCN2C(=O)[C@H](CC(C)C)NC(=O)[C@@H](N)Cc2ccccc2)[C@@H](C)CC)[C@@H](C)CC)C(C)C)[C@@H](C)CC)CSSC[C@@H](C(=O)O)NC(=O)[C@H](CCCCN)NC(=O)[C@H](CCCCN)NC(=O)[C@H]([C@@H](C)O)NC1=O [FLPIIAGMAAKVICAITKKC]

MIC [12]: ≥ 64 µM | MIC [13]: ≥ 64 µM
Compound: NCCCC[C@H](NC(=O)[C@H](CCCN=C(N)N)NC(=O)[C@H](CCCCN)NC(=O)CNC(=O)[C@H](CO)NC(=O)CNC(=O)[C@H](CCCCN)NC(=O)[C@H](CCCN=C(N)N)NC(=O)[C@@H](N)CCCCN)C(=O)O [KRKGSGKRK]

MIC [11]: ≥ 87.5 µM
Compound: NCCCC[C@H](NC(=O)[C@H](Cc1c[nH]c2ccccc12)NC(=O)[C@H](Cc1c[nH]c2ccccc12)NC(=O)[C@@H]1CCCN1C(=O)[C@H](Cc1c[nH]c2ccccc12)NC(=O)[C@@H](N)CCCCN)C(=O)N[C@@H](Cc1c[nH]c2ccccc12)C(=O)N[C@@H](CCCN=C(N)N)C(=O)N[C@@H](CCCN=C(N)N)C(N)=O [KWPWWKWRR]

MIC [11]: 10.1 µM (≈ 12.5 µg/mL)
Compound: CC[C@H](C)[C@H](N)C(=O)N[C@@H](CCCCN)C(=O)N[C@@H](CC(C)C)C(=O)N[C@@H](CC(C)C)C(=O)N[C@@H](CS)C(=O)N[C@@H](CCCN=C(N)N)C(=O)N[C@H](C(=O)N[C@@H](Cc1cnc[nH]1)C(=O)N[C@@H](CCCCN)C(=O)N[C@@H](CCCCN)C(=O)O)C(C)C [IKLLCRVHKK]

MIC [2]: 12.5 µM (≈ 18.2 µg/mL) | MIC [16]: 50 µM (≈ 72.8 µg/mL) | MIC [17]: ≥ 50 µM | MIC [18]: 1.6 µM (≈ 2.33 µg/mL) | MIC [19]: > 100 µM | MIC [20]: 25 µM (≈ 36.4 µg/mL) | MIC [21]: 6.2 µM (≈ 9.03 µg/mL) | MIC [5]: 6.2 µM (≈ 9.03 µg/mL) | MIC [22]: 6.2 µM (≈ 9.03 µg/mL) | MIC [23]: ≥ 50 µM
Compound: CC[C@H](C)[C@H](NC(=O)[C@H](Cc1cnc[nH]1)NC(=O)[C@H](CCC(N)=O)NC(=O)[C@H](CC(C)C)NC(=O)[C@@H](N)Cc1ccccc1)C(=O)N[C@H](C(=O)NCC(=O)N[C@@H](C)C(=O)N[C@@H](CC(C)C)C(=O)NCC(=O)N[C@@H](CCCCN)C(=O)N[C@@H](CC(C)C)C(=O)N[C@@H](Cc1ccccc1)C(N)=O)[C@@H](C)CC [FLQHIIGALGKLF]

MIC [10]: 2.79 µM (≈ 5 µg/mL) | MIC [24]: 44.6 µM (≈ 80 µg/mL) | MIC [25]: 1.6 µM (≈ 2.87 µg/mL) | MIC [26]: 2.79 µM (≈ 5 µg/mL) | MIC [27]: 0.0045 µM (≈ 0.00806 µg/mL)
Compound: CC[C@H](C)[C@H](N)C(=O)N[C@@H](CC(C)C)C(=O)N1CCC[C@H]1C(=O)N[C@@H](Cc1c[nH]c2ccccc12)C(=O)N[C@@H](CCCCN)C(=O)N[C@@H](Cc1c[nH]c2ccccc12)C(=O)N1CCC[C@H]1C(=O)N[C@@H](Cc1c[nH]c2ccccc12)C(=O)N[C@@H](Cc1c[nH]c2ccccc12)C(=O)N1CCC[C@H]1C(=O)N[C@@H](C)C(=O)N[C@@H](CCCN=C(N)N)C(=O)N[C@@H](CCCN=C(N)N)C(N)=O [ILPWKWPWWPARR]

MIC [12]: ≥ 64 µM | MIC [13]: ≥ 64 µM
Compound: CC[C@H](C)[C@H](NC(=O)[C@H](CC(C)C)NC(=O)[C@@H](NC(=O)[C@@H](N)CC(C)C)[C@@H](C)CC)C(=O)N[C@@H](CCCCN)C(=O)N[C@@H](CCCN=C(N)N)C(=O)N[C@@H](CCCCN)C(=O)O [LILIKRK]

MIC [11]: ≥ 42.4 µM
Compound: CC[C@H](C)[C@H](NC(=O)[C@H](CCCCN)NC(=O)[C@H](CCCCN)NC(=O)[C@H](Cc1cnc[nH]1)NC(=O)[C@@H](NC(=O)[C@H](CCCN=C(N)N)NC(=O)[C@H](CS)NC(=O)[C@H](CC(C)C)NC(=O)[C@@H](N)CC(C)C)C(C)C)C(=O)N[C@@H](C)C(=O)O [LLCRVHKKIA]
